Data on one molecule can be found in patent US9226950B2, “Method and composition for treating diabetes mellitus” (National Dong Hwa University, priority 2013, dated 2016).

For test [1], the system named is S961-induced hyperglycemic mice (DM mice). Description: Oral glucose tolerance test (OGTT) in S961-induced hyperglycemic mice. The class given is in vivo, C57BL/6 mouse. To be noted: D-glucose 2 g/kg. The protocol:
Animal experiments were approved by the National Dong-Hwa University Animal Ethics Committee and were used according to the “Guide for the Care and Use of Laboratory Animals” of National Dong-Hwa University. The C57BL/6 mouse were obtained National Laboratory Animal Center (Taipei, Taiwan) and kept at controlled environmental conditions with room temperature (22±2° C.) and humidity (50±10%). The 12 hr light (0600 am-1800 pm) and 12 hr dark cycle was maintained throughout the study. Mice had free access to food and water and maintained on a standard laboratory diet (containing carbohydrates: 60%, proteins: 28%, lipids: 12%, and vitamins: 3%).
The 8 weeks old male C57 BL/6 mice after fasting 12 hr were used in this test. The mice were orally administered (p.o.) with tetracosanol (dissolved in PEG and EtOH, 25 mg/kg Bwt) or Metformin (100 mg/kg Bwt) for 3 hr. To investigate the effect of tetracosanol on the DM mice, the mice were intraperitoneally injected (i.p.) with S961 (50 nmol/kg Bwt) to induce hyperglycemia, prior to the administration of D-glucose (2 g/kg Bwt, p.o.). At approximately the 0, 30, 60, 90, and 120 min., the blood of each mouse was sampled by venipuncture from the tail vein for the determination of blood glucose. Blood glucose was immediately determined by the glucose oxidase method using glucose analyzer (Accu-Chek, Roche).
To investigate the glycemic control effect of tetracosanol on the hyperglycemic mice, hyperglycemic mice were induced by insulin receptor antagonist-S961. The mice of each group were treated with or without Metformin (Met) as positive control, or treated with or without tetracosanol (Tet). Then, all the groups were administered with D-glucose (2 g/kg Bwt) (n=6 in each group). The tetracosanol for glycemic control was confirmed by OGTT.
8 weeks old male C57 BL/6 mice after fasting 12 hr were employed in this study. […] The blood glucose was determined by the glucose oxidase method using glucose analyzer (Accu-Chek, Roche). […]

The test system of the next test is L6 myotubes. Description: Glucose uptake assay (2-deoxyglucose) in L6 myotubes. The class given is cell-based, rat. To be noted: FIG. 4. The protocol: […] muscle myoblast cells (L6) was a generous gift from Professor Hitoshi Ashida's Lab. (Kobe University, Kobe, Japan). The cells were grown and maintained in α-minimal essential medium (α-MEM, 12000022, GIBCO, CA, USA) containing 10% fetal bovine serum (FBS, GIBCO) and 1% penicillin streptomycin (GIBCO) in a cell culture incubator with 5% CO2 at 37° C. Prior to the following experiments, the cells were seeded and cultured at a density of 8×10^3 cells per well in 96-well plates or 2.5×10^5 cells per well in 6-well plates. After the myoblasts achieved 80% confluence, the cells were incubated for 5 days in the α-MEM supplemented with 2% FBS to induce differentiation to myotubes.
The glucose uptake assay was followed the study disclosed in Yamamoto et al. (“An enzymatic fluorimetric assay to quantitate 2-deoxyglucose and 2-deoxyglucose-6-phosphate for in vitro and in vivo use.” Anal Biochem 404(2): 238-240, 2010) with minor modification and the technique generously assistant from Professor Hitoshi Ashida's Lab (Kobe University, Kobe, Japan). […] Uptake of 2DG into the cells was measured by the enzymatic fluorescence assay. The fluorescence assay buffer was composed of 50 mM TEA buffer, 0.1% BSA, 2.5 mM β-NADP (Wako Pure Chemical, Osaka, Japan), 0.05 unit Diaphorase (Wako), 150 unit/L. mesenteriodes G6PDH (sigma), and 0.5 mM Resazurin sodium salt (sigma). […]

With `CCCCCCCCCCCCCCCCCCCCCCCCO` [tetracosanol], the “blood glucose change in OGTT” value in test [1] (DM mice (S961), p.o., comparison with metformin, FIG. 6(a)) was “even better than metformin”; in test [1] (tetracosanol 25 mg/kg Bwt p.o. versus Metformin 100 mg/kg Bwt, S961 50 nmol/kg i.p., FIG. 5(a)) it was “profile similar to the treatment with metformin”. In addition, the “AUC of the blood glucose change in OGTT” value in test [1] (tetracosanol 25 mg/kg Bwt p.o., DM mice (S961) and normal mice (Con), FIG. 5(b)) is reported as “good efficacy in glycemic control”. The cell glucose uptake entry is reported as “synergistic effect” in the test with L6 myotubes (1 μM insulin plus 400 nM S961 and 10 μM tetracosanol (Ins+S961+Tet) versus Ins+Tet); “enhanced the cell glucose uptake” in the test on L6 myotubes (10 μM tetracosanol with 1 μM insulin (Ins+Tet)).
